The source of these data is ChEMBL document CHEMBL4177731, “Synthesis, in vitro α-glucosidase inhibitory activity and docking studies of novel chromone-isatin derivatives” (Bioorg Med Chem Lett, 2018).

The term IC50 denotes the concentration that gives 50% inhibition. Low readings indicate greater potency, high ones weaker potency.

The nature of the assay: Inhibition of Saccharomyces cerevisiae alpha-glucosidase pre-incubated for 15 mins before p-nitrophenyl alpha-D-glucopyranoside substrate addition and measured after 30 mins by spectrophotometry.
With `O=C1/C(=N\N=C\c2coc3ccccc3c2=O)c2ccccc2N1Cc1cccc(F)c1`, 16 µM corresponded to half-maximal inhibition (IC50).
For `O=C1/C(=N\N=C\c2coc3ccccc3c2=O)c2ccccc2N1Cc1ccccc1Cl` the value was 13.5 µM.
For `O=C1/C(=N\N=C\c2coc3cc(O)ccc3c2=O)c2ccccc2N1Cc1ccccc1Cl` the value was 5.51 µM; for `O=C1/C(=N\N=C\c2coc3cc(O)ccc3c2=O)c2ccccc2N1Cc1ccc(F)cc1`, 3.82 µM; for `O=C1Nc2ccccc2/C1=N/N=C/c1coc2ccccc2c1=O`, 16.2 µM.
`CN1C(=O)/C(=N\N=C\c2coc3ccccc3c2=O)c2ccccc21` gave an IC50 of 11.8 µM.
Under `O=C1/C(=N\N=C\c2coc3cc(O)ccc3c2=O)c2ccccc2N1Cc1ccc(Br)cc1` stands 3.18 µM; under `O=C1/C(=N\N=C\c2coc3cc(O)ccc3c2=O)c2ccccc2N1Cc1ccc(Cl)cc1Cl`, 4.25 µM; under `O=C1/C(=N\N=C\c2coc3cc(O)ccc3c2=O)c2ccccc2N1Cc1ccccc1Br`, 4.73 µM.
Compound `O=C1/C(=N\N=C\c2coc3ccccc3c2=O)c2ccccc2N1Cc1ccc(F)cc1` gave an IC50 of 9.8 µM.
Regarding `O=C1/C(=N\N=C\c2coc3ccccc3c2=O)c2ccccc2N1Cc1ccccc1F`, half-maximal inhibition (IC50) was put at 14 µM. The IC50 values of the last two compounds are within 1.5-fold of each other.
Compound `O=C1/C(=N\N=C\c2coc3cc(O)ccc3c2=O)c2ccccc2N1Cc1ccccc1F` came in with an IC50 of 4.57 µM.
For `O=C1/C(=N\N=C\c2coc3ccccc3c2=O)c2ccccc2N1Cc1ccc(Cl)cc1` the value was 16.6 µM.
For `O=C1/C(=N\N=C\c2coc3ccccc3c2=O)c2ccccc2N1Cc1ccc(Br)cc1` the value was 8.17 µM.
For `O=C1/C(=N\N=C\c2coc3cc(O)ccc3c2=O)c2ccccc2N1Cc1ccc(Cl)cc1` the value was 3.9 µM; for `O=C1/C(=N\N=C\c2coc3cc(O)ccc3c2=O)c2ccccc2N1Cc1cccc(F)c1`, 4.17 µM.
